We go through 22 compounds from patent US20090311217A1, “3-SUBSTITUTED-1H-INDOLE COMPOUNDS, THEIR USE AS MTOR KINASE AND PI3 KINASE INHIBITORS, AND THEIR SYNTHESES” (priority 2008, published 2009).

Format in all cases: biochemical
In experiment [1] the target is PI3K-alpha (Homo sapiens, UniProt P42336). In words: PI3K-alpha fluorescence polarization assay. (In general: Polarisation of emitted light reports the rotation of a fluorescent probe.)
Experiment [2] deals with PI3K-delta (Homo sapiens, UniProt O00329). In words: PI3K-delta fluorescence polarization assay. Conditions: read-out: PI3Kδ Avg. IC50.
PI3K-delta, sequence (O00329 whole entry, species assumed): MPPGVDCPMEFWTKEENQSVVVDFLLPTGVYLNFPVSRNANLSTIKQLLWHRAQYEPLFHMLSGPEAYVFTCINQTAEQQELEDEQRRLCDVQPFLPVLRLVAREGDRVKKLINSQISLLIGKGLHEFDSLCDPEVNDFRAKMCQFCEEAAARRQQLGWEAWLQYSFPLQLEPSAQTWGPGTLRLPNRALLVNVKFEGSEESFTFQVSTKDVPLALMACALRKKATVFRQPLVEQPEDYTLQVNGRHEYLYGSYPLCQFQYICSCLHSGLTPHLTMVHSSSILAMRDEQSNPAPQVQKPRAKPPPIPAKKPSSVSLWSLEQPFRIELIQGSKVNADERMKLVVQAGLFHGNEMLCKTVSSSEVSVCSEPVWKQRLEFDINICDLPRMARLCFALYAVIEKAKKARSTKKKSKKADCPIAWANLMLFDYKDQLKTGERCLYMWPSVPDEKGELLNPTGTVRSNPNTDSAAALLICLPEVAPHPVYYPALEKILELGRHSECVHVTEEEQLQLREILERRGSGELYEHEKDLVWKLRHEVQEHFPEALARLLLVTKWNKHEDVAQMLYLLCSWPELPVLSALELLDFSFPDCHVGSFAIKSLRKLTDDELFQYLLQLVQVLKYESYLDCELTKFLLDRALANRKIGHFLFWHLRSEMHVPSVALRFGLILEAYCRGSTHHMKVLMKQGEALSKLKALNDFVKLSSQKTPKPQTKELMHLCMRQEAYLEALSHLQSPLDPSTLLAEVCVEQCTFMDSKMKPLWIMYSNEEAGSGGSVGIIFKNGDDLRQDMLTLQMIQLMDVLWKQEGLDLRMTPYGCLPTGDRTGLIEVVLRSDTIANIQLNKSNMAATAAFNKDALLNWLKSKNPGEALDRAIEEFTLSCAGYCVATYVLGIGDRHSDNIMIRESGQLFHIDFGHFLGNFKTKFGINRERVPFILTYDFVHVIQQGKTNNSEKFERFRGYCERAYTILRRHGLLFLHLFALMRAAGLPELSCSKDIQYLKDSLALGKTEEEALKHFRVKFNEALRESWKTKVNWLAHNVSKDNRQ
PI3K-delta, sequence (P27986 whole entry partner, species assumed): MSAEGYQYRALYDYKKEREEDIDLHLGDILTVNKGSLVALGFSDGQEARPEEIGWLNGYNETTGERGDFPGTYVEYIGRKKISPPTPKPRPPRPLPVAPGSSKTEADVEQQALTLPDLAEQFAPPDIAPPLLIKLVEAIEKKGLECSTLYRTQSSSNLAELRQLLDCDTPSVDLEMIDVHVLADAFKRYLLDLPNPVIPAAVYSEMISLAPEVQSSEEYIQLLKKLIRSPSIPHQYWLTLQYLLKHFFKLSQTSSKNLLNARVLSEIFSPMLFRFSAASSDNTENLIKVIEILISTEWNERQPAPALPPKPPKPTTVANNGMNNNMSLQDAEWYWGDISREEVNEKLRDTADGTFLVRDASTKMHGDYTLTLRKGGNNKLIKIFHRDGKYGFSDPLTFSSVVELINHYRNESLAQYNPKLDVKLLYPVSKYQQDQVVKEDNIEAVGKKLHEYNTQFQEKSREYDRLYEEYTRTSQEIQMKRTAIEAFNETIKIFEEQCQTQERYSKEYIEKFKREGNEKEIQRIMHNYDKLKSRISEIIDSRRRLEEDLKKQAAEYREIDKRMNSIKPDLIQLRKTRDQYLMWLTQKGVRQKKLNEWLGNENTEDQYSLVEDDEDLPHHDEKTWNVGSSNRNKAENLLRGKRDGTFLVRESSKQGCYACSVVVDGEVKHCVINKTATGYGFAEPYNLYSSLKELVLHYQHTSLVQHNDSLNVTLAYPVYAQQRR
Experiment [3] concerns the target T1, human TOR (Homo sapiens, UniProt P42345).
T1 construct: FLAG
The experiment in a line: mTOR enzyme assay (DELFIA, His6-S6K substrate). Conditions: read-out: mTOR Kinase Avg. IC50.

Experiment [4] addresses PI3K-gamma (Homo sapiens, UniProt P48736). The experiment in a line: PI3K-gamma fluorescence polarization assay. Conditions: PI3Kγ Avg. IC50. The method in brief: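 FP competition read-out: PIP3 produced displaces BODIPY-TMR-IP4 (5 nM) from GST-GRP1 PH domain (100 nM). Kinase step: 5 ng enzyme, 2.5 μM diC8-PIP2, 25 μM ATP, pH 7 HEPES/MgCl2, 1 h, 25° C; EDTA stop.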

Where two headings read alike, the source gives them in different places.

PI3K-alpha, sequence (P42336 whole entry, species assumed): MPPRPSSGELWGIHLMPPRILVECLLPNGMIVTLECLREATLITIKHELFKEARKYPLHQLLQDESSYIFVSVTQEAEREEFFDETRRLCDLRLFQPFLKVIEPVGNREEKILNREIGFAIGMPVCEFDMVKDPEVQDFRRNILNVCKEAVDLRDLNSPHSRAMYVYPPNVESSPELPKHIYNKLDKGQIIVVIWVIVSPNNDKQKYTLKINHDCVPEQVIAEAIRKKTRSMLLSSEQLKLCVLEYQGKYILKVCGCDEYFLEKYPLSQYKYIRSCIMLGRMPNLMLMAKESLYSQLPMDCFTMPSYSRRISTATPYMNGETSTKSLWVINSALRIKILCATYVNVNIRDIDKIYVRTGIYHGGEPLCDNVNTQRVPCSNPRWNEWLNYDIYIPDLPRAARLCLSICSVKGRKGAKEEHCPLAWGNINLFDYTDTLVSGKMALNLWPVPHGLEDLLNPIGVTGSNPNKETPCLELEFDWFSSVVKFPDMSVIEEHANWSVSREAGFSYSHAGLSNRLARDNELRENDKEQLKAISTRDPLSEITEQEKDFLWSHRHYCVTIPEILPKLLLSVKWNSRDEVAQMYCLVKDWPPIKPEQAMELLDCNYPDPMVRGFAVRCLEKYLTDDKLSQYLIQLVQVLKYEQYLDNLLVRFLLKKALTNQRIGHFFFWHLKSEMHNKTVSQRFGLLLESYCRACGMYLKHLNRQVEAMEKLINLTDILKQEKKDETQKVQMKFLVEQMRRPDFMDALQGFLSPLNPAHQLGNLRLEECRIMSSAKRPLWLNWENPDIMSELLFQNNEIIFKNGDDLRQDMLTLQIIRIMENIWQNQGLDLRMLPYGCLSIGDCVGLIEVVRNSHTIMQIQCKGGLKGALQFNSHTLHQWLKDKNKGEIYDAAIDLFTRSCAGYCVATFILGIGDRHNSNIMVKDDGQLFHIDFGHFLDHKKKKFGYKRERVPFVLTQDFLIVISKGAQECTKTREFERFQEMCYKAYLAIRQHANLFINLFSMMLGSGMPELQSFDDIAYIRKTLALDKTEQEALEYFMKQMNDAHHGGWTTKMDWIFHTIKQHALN
PI3K-alpha, sequence (P27986 whole entry partner, species assumed): as the sequence (P27986 whole entry partner, species assumed) above
PI3K-gamma, sequence (P48736 whole entry, species assumed, the tested form may be a part): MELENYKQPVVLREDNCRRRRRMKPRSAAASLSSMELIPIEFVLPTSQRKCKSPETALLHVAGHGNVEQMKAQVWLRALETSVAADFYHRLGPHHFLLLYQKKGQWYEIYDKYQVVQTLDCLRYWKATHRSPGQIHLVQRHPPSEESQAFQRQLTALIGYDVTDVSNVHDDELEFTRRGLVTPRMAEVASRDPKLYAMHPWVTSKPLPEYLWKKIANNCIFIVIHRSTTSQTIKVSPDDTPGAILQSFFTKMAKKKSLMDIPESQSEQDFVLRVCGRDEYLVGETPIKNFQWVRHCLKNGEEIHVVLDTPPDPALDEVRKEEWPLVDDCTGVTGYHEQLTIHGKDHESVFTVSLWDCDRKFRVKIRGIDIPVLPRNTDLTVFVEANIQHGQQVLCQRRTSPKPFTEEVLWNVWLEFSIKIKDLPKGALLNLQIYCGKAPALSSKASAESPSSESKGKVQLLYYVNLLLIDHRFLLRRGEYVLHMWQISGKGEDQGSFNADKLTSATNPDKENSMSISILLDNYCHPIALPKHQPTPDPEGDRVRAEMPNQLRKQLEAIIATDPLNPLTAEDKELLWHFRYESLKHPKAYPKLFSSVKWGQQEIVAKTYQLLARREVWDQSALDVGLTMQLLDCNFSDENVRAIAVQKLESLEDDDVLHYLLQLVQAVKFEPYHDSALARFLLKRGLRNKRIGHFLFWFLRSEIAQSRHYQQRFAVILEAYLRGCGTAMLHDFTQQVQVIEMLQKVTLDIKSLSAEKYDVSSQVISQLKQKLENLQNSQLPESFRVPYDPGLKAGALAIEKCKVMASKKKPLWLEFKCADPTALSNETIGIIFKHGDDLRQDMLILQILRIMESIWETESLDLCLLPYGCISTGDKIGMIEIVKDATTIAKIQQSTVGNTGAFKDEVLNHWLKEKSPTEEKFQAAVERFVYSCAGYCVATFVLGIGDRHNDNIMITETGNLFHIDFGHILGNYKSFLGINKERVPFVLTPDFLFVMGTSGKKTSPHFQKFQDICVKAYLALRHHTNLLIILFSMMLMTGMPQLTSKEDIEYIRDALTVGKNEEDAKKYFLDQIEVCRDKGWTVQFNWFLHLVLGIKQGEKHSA

Take `COc1ccc2c(c1)c(/C=C1\Oc3ccc(NC(=O)Nc4ccc(C(=O)N5CCN(C)CC5)cc4)cc3C1=O)c(C)n2CCN1CCN(C)CC1` [Compound 618, 1-[(2Z)-2-({5-methoxy-2-methyl-1-[2-(4-methylpiperazin-1-yl)ethyl]-1H-indol-3-yl}methylene)-3-oxo-2,3-dihydro-1-benzofuran-5-yl]-3-{4-[(4-methylpiperazin-1-yl)carbonyl]phenyl}urea]: the results for the IC50 in experiment [1] (read-out: PI3Kα Avg. IC50), in experiment [2] and in experiment [3] were 0.5 nM, 5 nM and 100 nM, respectively.

Take `CCn1c(C)c(/C=C2\Oc3ccc(NC(=O)Nc4ccc(C(=O)N5CCN(C)CC5)cc4)cc3C2=O)c2cc(OC)ccc21` [Compound 620, 1-{(2Z)-2-[(1-ethyl-5-methoxy-2-methyl-1H-indol-3-yl)methylene]-3-oxo-2,3-dihydro-1-benzofuran-5-yl}-3-{4-[(4-methylpiperazin-1-yl)carbonyl]phenyl}urea]: the IC50 (as a rule, the point on the concentration scale where inhibition reaches its midpoint) was 0.3 nM in experiment [1] (read-out: PI3Kα Avg. IC50), 2 nM in experiment [2] and 240 nM in experiment [3].

As to `COc1ccc2c(c1)c(/C=C1\Oc3ccc(NC(=O)Nc4ccc(C(=O)N5CCN(C)CC5)cc4)cc3C1=O)c(C)n2CCO` [Compound 619, 1-[(2Z)-2-{[1-(2-hydroxyethyl)-5-methoxy-2-methyl-1H-indol-3-yl]methylene}-3-oxo-2,3-dihydro-1-benzofuran-5-yl]-3-{4-[(4-methylpiperazin-1-yl)carbonyl]phenyl}urea], the figures for the IC50 in experiment [1] (read-out: PI3Kα Avg. IC50), in experiment [2] and in experiment [3] were 0.2 nM, 2.5 nM and 38 nM, respectively.

As to `COc1ccc2c(c1)c(/C=C1\Oc3cc(O)ccc3C1=O)c(C)n2CCN1CCCC1C` (stereo not drawn) [Example 453, (2Z)-6-Hydroxy-2-({5-methoxy-2-methyl-1-[2-(2-methylpyrrolidin-1-yl)ethyl]-1H-indol-3-yl}methylene)-1-benzofuran-3(2H)-one], the IC50 in experiment [1] (read-out: PI3Kα Avg. IC50) came to 49.5 nM; in experiment [4], 550 nM; in experiment [3], 2200 nM.

Consider `CNC(=O)Nc1ccc2c(c1)C(=O)/C(=C/c1c(-c3c(C)nn(C)c3C)n(CCNCCN(C)C)c3ccc(OC)cc13)O2` [Compound 664, 1-[(2Z)-2-{[1-(2-{[2-(dimethylamino)ethyl]amino}ethyl)-5-methoxy-2-(1,3,5-trimethyl-1H-pyrazol-4-yl)-1H-indol-3-yl]methylidene}-3-oxo-2,3-dihydro-1-benzofuran-5-yl]-3-methylurea], for which the IC50 in experiment [1] (read-out: PI3Kα Avg. IC50) stood at 2.05 nM; in experiment [4] it was 63 nM; in experiment [3] it was 18 nM.

For the compound `O=C1/C(=C/c2c[nH]c3ccc(Br)cc23)Oc2c1ccc(O)c2O` [Example 58, (2Z)-2-[(5-bromo-1H-indol-3-yl)methylene]-6,7-dihydroxy-1-benzofuran-3(2H)-one], the IC50 in experiment [1] (read-out: PI3Kα Avg. IC50) came out at 310 nM; in experiment [4], 3530 nM; in experiment [3] it was 15000 nM.

With `CNC(=O)Nc1ccc2c(c1)C(=O)/C(=C/c1c(-c3c(C)nn(CCOC)c3C)[nH]c3ccc(OC)cc13)O2` [Compound 709, 1-[(2Z)-2-({5-methoxy-2-[1-(2-methoxyethyl)-3,5-dimethyl-1H-pyrazol-4-yl]-1H-indol-3-yl}methylidene)-3-oxo-2,3-dihydro-1-benzofuran-5-yl]-3-methylurea], the IC50 in experiment [1] (read-out: PI3Kα Avg. IC50) came to 47 nM; in experiment [4], 248 nM; in experiment [3], 43 nM.

`CNC(=O)Nc1ccc2c(c1)C(=O)/C(=C/c1c(C#N)n(CCN3CCN(C)CC3)c3ccc(OC)cc13)O2` [Compound 628, 1-[(2Z)-2-({2-cyano-5-methoxy-1-[2-(4-methylpiperazin-1-yl)ethyl]-1H-indol-3-yl}methylidene)-3-oxo-2,3-dihydro-1-benzofuran-5-yl]-3-methylurea]: the IC50 in experiment [1] (read-out: PI3Kα Avg. IC50) amounted to 11 nM; in experiment [4], 2730 nM; in experiment [3] it was 150 nM.

Turning to `CCn1c(-c2ccccc2)c(C=C2Oc3cc(O)cc(O)c3C2=O)c2ccccc21` [Example 213, 2-[(1-ethyl-2-phenyl-1H-indol-3-yl)methylene]-4,6-dihydroxy-1-benzofuran-3(2H)-one], the half-maximal inhibitory concentration (IC50) in experiment [1] (read-out: PI3Kα Avg. IC50) is 770 nM; in experiment [4] it was 2650 nM; in experiment [3] it was 170 nM.

As for `COc1ccc2[nH]c(-c3c(C)nn(C)c3C)c(/C=C3\Oc4ccc(NC(=O)Nc5cccnc5)cc4C3=O)c2c1` [Compound 635, 1-[(2Z)-2-{[5-methoxy-2-(1,3,5-trimethyl-1H-pyrazol-4-yl)-1H-indol-3-yl]methylene}-3-oxo-2,3-dihydro-1-benzofuran-5-yl]-3-pyridin-3-ylurea], the concentration for half-maximal inhibition (IC50) in experiment [1] (read-out: PI3Kα Avg. IC50) is 0.5 nM; in experiment [4], 2.5 nM; in experiment [3] it was 5 nM.

`COc1ccc2c(c1)c(/C=C1\Oc3ccc(NC(=O)Nc4ccc(N(C)C(=O)CCN(C)C)cc4)cc3C1=O)c(C)n2CCN1CCN(C)CC1` [Compound 695, N-[4-({[(2Z)-2-({5-methoxy-2-methyl-1-[2-(4-methylpiperazin-1-yl)ethyl]-1H-indol-3-yl}methylidene)-3-oxo-2,3-dihydro-1-benzofuran-5-yl]carbamoyl}amino)phenyl]-N,N3,N3-trimethyl-b-alaninamide]: the IC50 in experiment [1] (read-out: PI3Kα Avg. IC50) is 4 nM; in experiment [4], greater than 5500 nM; in experiment [3], 330 nM.

Turning to `COc1cc(O)cc2c1C(=O)/C(=C/c1c(-c3ccccc3)n(C)c3ccccc13)O2` [Example 432, (2Z)-6-Hydroxy-4-methoxy-2-[(1-methyl-2-phenyl-1H-indol-3-yl)methylene]benzofuran-3(2H)-one], the values for the IC50 in experiment [1] (read-out: PI3Kα Avg. IC50), in experiment [4] and in experiment [3] were greater than 10000 nM, 8140 nM and 2030 nM, respectively.

Consider `O=C1/C(=C/c2c(-c3ccc4ccccc4c3)[nH]c3ccccc23)Oc2cc(O)cc(O)c21` [Example 45, (2Z)-4,6-dihydroxy-2-{[2-(2-naphthyl)-1H-indol-3-yl]methylene}-1-benzofuran-3(2H)-one], for which the IC50 in experiment [1] (PI3Kα Avg. IC50) turned out to be 799 nM; in experiment [4], 1820 nM; in experiment [3], 280 nM.

For `CNC(=O)Nc1ccc2c(c1)C(=O)/C(=C/c1c(-c3cnn(CC(C)C)c3)[nH]c3c(F)cc(OC)cc13)O2` [Compound 717, 1-[(2Z)-2-({7-fluoro-5-methoxy-2-[1-(2-methylpropyl)-1H-pyrazol-4-yl]-1H-indol-3-yl}methylidene)-3-oxo-2,3-dihydro-1-benzofuran-5-yl]-3-methylurea], the IC50 in experiment [1] (read-out: PI3Kα Avg. IC50) came to 2.65 nM; in experiment [4], 8 nM; in experiment [3], 7 nM.

Turning to `Cn1cc(/C=C2\Oc3cc(O)cc(O)c3C2=O)c2c(-c3ccc(N4CCOCC4)nc3)cccc21` [Example 386, (2Z)-4,6-Dihydroxy-2-{[1-methyl-4-(6-morpholin-4-ylpyridin-3-yl)-1H-indol-3-yl]methylene}-1-benzofuran-3(2H)-one], the results for the IC50 in experiment [1] (read-out: PI3Kα Avg. IC50), in experiment [4] and in experiment [3] were 1920 nM, 5780 nM and 69.5 nM, respectively.

For the compound `Cn1c(-c2cccnc2)c(C=C2Oc3cc(O)cc(O)c3C2=O)c2ccccc21` [Example 189, 4,6-dihydroxy-2-[(1-methyl-2-pyridin-3-yl-1H-indol-3-yl)methylene]-1-benzofuran-3(2H)-one], the results for the IC50 in experiment [1] (read-out: PI3Kα Avg. IC50), in experiment [4] and in experiment [3] were 2710 nM, 11000 nM and 140 nM, respectively.

Turning to `O=C1C(=Cc2c[nH]c3c(OCc4ccccc4)cccc23)Oc2cc(O)cc(O)c21` [Example 242, 2-{[7-(benzyloxy)-1H-indol-3-yl]methylene}-4,6-dihydroxy-1-benzofuran-3(2H)-one], the IC50 was 1000 nM in experiment [1] (read-out: PI3Kα Avg. IC50), greater than 10000 nM in experiment [4] and greater than 20000 nM in experiment [3].

As for `COc1ccc2c(c1)c(/C=C1\Oc3cc(O)cc(O)c3C1=O)c(C(=O)N1CCCC1)n2CCN1CCN(C)CC1` [Example 430, (2Z)-4,6-Dihydroxy-2-({5-methoxy-1-[2-(4-methylpiperazin-1-yl)ethyl]-2-(pyrrolidin-1-ylcarbonyl)-1H-indol-3-yl}methylene)-1-benzofuran-3(2H)-one], the values for the IC50 in experiment [1] (read-out: PI3Kα Avg. IC50), in experiment [4] and in experiment [3] were 7.5 nM, 197 nM and 115 nM, respectively.

As for `COc1ccc2c(c1)c(/C=C1\Oc3cc(O)cc(O)c3C1=O)c(C)n2CC(=O)N(C)C` [Example 322, 2-{3-[(Z)-(4,6-Dihydroxy-3-oxo-1-benzofuran-2(3H)-ylidene)methyl]-5-methoxy-2-methyl-1H-indol-1-yl}-N,N-dimethylacetamide], the IC50 in experiment [1] (read-out: PI3Kα Avg. IC50) was found to be 39.8 nM; in experiment [4], 178 nM; in experiment [3], 23 nM.

With `COc1ccc2[nH]c(-c3c(C)nn(C)c3C)c(/C=C3\Oc4ccc(NC(=O)Nc5cccc(C(=O)N(C)CCN(C)C)c5)cc4C3=O)c2c1` [Compound 707, N-[2-(dimethylamino)ethyl]-3-({[(2Z)-2-{[5-methoxy-2-(1,3,5-trimethyl-1H-pyrazol-4-yl)-1H-indol-3-yl]methylidene}-3-oxo-2,3-dihydro-1-benzofuran-5-yl]carbamoyl}amino)-N-methylbenzamide], the results for the IC50 in experiment [1] (read-out: PI3Kα Avg. IC50), in experiment [4] and in experiment [3] were 8 nM, 123 nM and 85 nM, respectively.

As for `Cc1noc(C)c1-c1[nH]c2ccccc2c1C=C1Oc2cc(O)cc(O)c2C1=O` [Example 204, 2-{[2-(3,5-dimethylisoxazol-4-yl)-1H-indol-3-yl]methylene}-4,6-dihydroxy-1-benzofuran-3(2H)-one], the values for the IC50 in experiment [1] (read-out: PI3Kα Avg. IC50), in experiment [4] and in experiment [3] were 1160 nM, 6430 nM and 190 nM, respectively.

Turning to `CC(=O)Nc1cccc(-c2cccc3c2c(/C=C2\Oc4cc(O)cc(O)c4C2=O)cn3C)c1` [Example 388, N-(3-{3-[(Z)-(4,6-Dihydroxy-3-oxo-1-benzofuran-2(3H)-ylidene)methyl]-1-methyl-1H-indol-4-yl}phenyl)acetamide], the IC50 was found to be 1350 nM in experiment [1] (read-out: PI3Kα Avg. IC50), 3280 nM in experiment [4] and 200 nM in experiment [3].
